Reference: US20210261621A1, “Preparation of Dilipid Polymixins and Use Thereof as Antimicrobial Adjuvants” (priority 2018, published 2021)
Converted amounts (≈) assume the structure as drawn. Like-named read-outs stand apart in the source and are kept apart here. Positions of bridges follow the written chain, without caps; N, C: chain ends. Non-standard residues stand in square brackets, D forms with d. Residues, ends and D or L forms follow the SMILES beside them. *: point of attachment. Benzoyl(4-Ph) = O=C(c1ccc(-c2ccccc2)cc1)*; Dab = NCC[C@H](N)C(=O)O

Experiments:
pig erythrocytes = experiment: Hemolytic assay; conditions: pig erythrocytes, 1 h at 37° C.
[1] = test system: P. aeruginosa CANWARD-2011 96846; assay type: cell-based, Pseudomonas aeruginosa
How it was run: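 Overnight cultures were standardized to 0.5 McFarland, diluted 1:50 into Mueller-Hinton broth for a final inoculum near 5×10^5 CFU/mL, then mixed with two-fold serially diluted compound. Plates were incubated 18 h at 37° C. following CLSI guidelines.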

P. aeruginosa PAO1 = test system: P. aeruginosa PAO1; design: MICDrug / MICDrug in combo / MIC of adjuvant in combo: unit not given beside the values
Experimental: The potential of the dilipid polymyxins to serve as an adjuvant in combination with other antibiotics was evaluated against P. aeruginosa PAO1 strain (Tables 4 and 7-12). […] Checkerboard assays were performed with the dilipid polymyxins in combination with twenty-one clinically-used antibiotics. The panel included representatives from the β-lactam, carbapenem, tetracycline, aminoglycoside and fluoroquinolone antibiotic families. Other agents that are used to treat Gram-negative bacterial infection such as fosfomycin, trimethoprim and chloramphenicol were also included. […] Fractional inhibitory concentration (FIC) index was calculated for each combination to measure potential synergism between the two agents. FIC was obtained by dividing the MIC of antibiotic/adjuvant in combination by the MIC of antibiotic/adjuvant alone, while FIC index was calculated by the summation of FIC indices for the antibiotic and adjuvant. An FIC index of ≤0.5, 0.5<x≤4, or >4 denotes for synergistic, additive or antagonistic interaction, respectively. Initially, we assessed the adjuvant properties of PMBN against the panel of 21 antibiotics.
The assay was performed on 96-well plates as previously described. Briefly, the antibiotic at study was 2-fold serially diluted along the x-axis, while the adjuvant was 2-fold serially diluted along the y-axis to create a matrix in which each well consists of a combination of both at different concentrations. Overnight grown bacterial cultures were diluted in saline to 0.5 McFarland turbidity, followed by 1:50 dilution in MHB and inoculation on each well to a final concentration of approximately 5×10^5 colony forming units/mL. Wells containing only MHB with or without bacterial cells were used as positive or negative control, respectively. […] The fractional inhibitory concentration (FIC) of the antibiotic was calculated via dividing the MIC of antibiotic in the presence of adjuvant by the MIC of antibiotic alone. Similarly, the FIC of adjuvant was calculated via dividing the MIC of adjuvant in the presence of antibiotic by the MIC of adjuvant alone. The FIC index was obtained by the summation of both FIC values. The FIC index was then interpreted as synergistic, additive, or antagonistic for values of ≤0.5, 0.5<x<4, or ≥4, respectively.

[2] = combination with Chloramphenicol

CC(C)C[C@@H]1NC(=O)[C@@H](Cc2ccccc2)NC(=O)[C@H](CCN)NC(=O)[C@@H](NC(=O)[C@H](CCN)NC(=O)[C@@H](NC(=O)[C@H](CCNC(=O)c2ccc(-c3ccccc3)cc2)NC(=O)c2ccc(-c3ccccc3)cc2)[C@@H](C)O)CCNC(=O)[C@H]([C@@H](C)O)NC(=O)[C@H](CCN)NC(=O)[C@H](CCN)NC1=O [Compound 5, Dibiphenyl-4-Carboxylic Acid (Di-Biphenyl) Polymyxin] ({Benzoyl(4-Ph)}-[Dab](Benzoyl(4-Ph))T[Dab][Dab][Dab][dF]L[Dab][Dab]T; lactam 4-C)
% Hemolysis at 512 μg/mL of polymyxin (pig erythrocytes; 512 μg/mL): 13.1 ± 1.4%
MHC5, minimum concentration that resulted in 5% red blood cell hemolysis (pig erythrocytes): 128 µg/mL
MIC [1]: 64 mg/L (≈ 45 µM)
MIC of adjuvant alone (MIC1, MIC2, MIC3, MIC4, MIC5, MICPMBN) (P. aeruginosa PAO1; adjuvant alone, one value per checkerboard, in µg/mL): 16
FIC index (P. aeruginosa PAO1; combination with Aztreonam): 0.62
Interpretation (P. aeruginosa PAO1; combination with Aztreonam): Additive (An FIC index of ≤0.5, 0.5<x≤4, or >4 denotes for synergistic, additive or antagonistic interaction, respectively)
FIC index (P. aeruginosa PAO1; combination with Ceftazidime): 0.62
Interpretation (P. aeruginosa PAO1; combination with Ceftazidime): Additive (An FIC index of ≤0.5, 0.5<x≤4, or >4 denotes for synergistic, additive or antagonistic interaction, respectively)
FIC index (P. aeruginosa PAO1; [2]): 0.50
Interpretation (P. aeruginosa PAO1; [2]): Synergy (An FIC index of ≤0.5, 0.5<x≤4, or >4 denotes for synergistic, additive or antagonistic interaction, respectively)
FIC index (P. aeruginosa PAO1; combination with Ciprofloxacin): 1.00
Interpretation (P. aeruginosa PAO1; combination with Ciprofloxacin): Additive (An FIC index of ≤0.5, 0.5<x≤4, or >4 denotes for synergistic, additive or antagonistic interaction, respectively)
FIC index (P. aeruginosa PAO1; combination with Clindamycin): 0.53
Interpretation (P. aeruginosa PAO1; combination with Clindamycin): Additive (An FIC index of ≤0.5, 0.5<x≤4, or >4 denotes for synergistic, additive or antagonistic interaction, respectively)
FIC index (P. aeruginosa PAO1; combination with Doripenem): 1.00
Interpretation (P. aeruginosa PAO1; combination with Doripenem): Additive (An FIC index of ≤0.5, 0.5<x≤4, or >4 denotes for synergistic, additive or antagonistic interaction, respectively)
FIC index (P. aeruginosa PAO1; combination with Doxycycline): 0.53
Interpretation (P. aeruginosa PAO1; combination with Doxycycline): Additive (An FIC index of ≤0.5, 0.5<x≤4, or >4 denotes for synergistic, additive or antagonistic interaction, respectively)
FIC index (P. aeruginosa PAO1; combination with Fosfomycin): 0.56
Interpretation (P. aeruginosa PAO1; combination with Fosfomycin): Additive (An FIC index of ≤0.5, 0.5<x≤4, or >4 denotes for synergistic, additive or antagonistic interaction, respectively)
FIC index (P. aeruginosa PAO1; combination with Gentamicin): 2.01
Interpretation (P. aeruginosa PAO1; combination with Gentamicin): Additive (An FIC index of ≤0.5, 0.5<x≤4, or >4 denotes for synergistic, additive or antagonistic interaction, respectively)
FIC index (P. aeruginosa PAO1; combination with Linezolid): 0.53
Interpretation (P. aeruginosa PAO1; combination with Linezolid): Additive (An FIC index of ≤0.5, 0.5<x≤4, or >4 denotes for synergistic, additive or antagonistic interaction, respectively)
FIC index (P. aeruginosa PAO1; combination with Meropenem): 1.00
Interpretation (P. aeruginosa PAO1; combination with Meropenem): Additive (An FIC index of ≤0.5, 0.5<x≤4, or >4 denotes for synergistic, additive or antagonistic interaction, respectively)
FIC index (P. aeruginosa PAO1; combination with Minocycline): 0.62
Interpretation (P. aeruginosa PAO1; combination with Minocycline): Additive (An FIC index of ≤0.5, 0.5<x≤4, or >4 denotes for synergistic, additive or antagonistic interaction, respectively)
FIC index (P. aeruginosa PAO1; combination with Moxifloxacin): 0.75
Interpretation (P. aeruginosa PAO1; combination with Moxifloxacin): Additive (An FIC index of ≤0.5, 0.5<x≤4, or >4 denotes for synergistic, additive or antagonistic interaction, respectively)
FIC index (P. aeruginosa PAO1; combination with Novobiocin): 0.50
Interpretation (P. aeruginosa PAO1; combination with Novobiocin): Synergy (An FIC index of ≤0.5, 0.5<x≤4, or >4 denotes for synergistic, additive or antagonistic interaction, respectively)
FIC index (P. aeruginosa PAO1; combination with Piperacillin): 1.00
Interpretation (P. aeruginosa PAO1; combination with Piperacillin): Additive (An FIC index of ≤0.5, 0.5<x≤4, or >4 denotes for synergistic, additive or antagonistic interaction, respectively)
Interpretation (P. aeruginosa PAO1; combination with Pleuromutilin): Additive (An FIC index of ≤0.5, 0.5<x≤4, or >4 denotes for synergistic, additive or antagonistic interaction, respectively)
FIC index (P. aeruginosa PAO1; combination with Rifampicin): 0.31
Interpretation (P. aeruginosa PAO1; combination with Rifampicin): Synergy (An FIC index of ≤0.5, 0.5<x≤4, or >4 denotes for synergistic, additive or antagonistic interaction, respectively)
FIC index (P. aeruginosa PAO1; combination with Streptomycin): 1.00
Interpretation (P. aeruginosa PAO1; combination with Streptomycin): Additive (An FIC index of ≤0.5, 0.5<x≤4, or >4 denotes for synergistic, additive or antagonistic interaction, respectively)
FIC index (P. aeruginosa PAO1; combination with Tobramycin): 1.01
Interpretation (P. aeruginosa PAO1; combination with Tobramycin): Additive (An FIC index of ≤0.5, 0.5<x≤4, or >4 denotes for synergistic, additive or antagonistic interaction, respectively)
FIC index (P. aeruginosa PAO1; combination with Trimethoprim): 0.62
Interpretation (P. aeruginosa PAO1; combination with Trimethoprim): Additive (An FIC index of ≤0.5, 0.5<x≤4, or >4 denotes for synergistic, additive or antagonistic interaction, respectively)
FIC index (P. aeruginosa PAO1; combination with Vancomycin): 0.51
Interpretation (P. aeruginosa PAO1; combination with Vancomycin): Additive (An FIC index of ≤0.5, 0.5<x≤4, or >4 denotes for synergistic, additive or antagonistic interaction, respectively)
MIC of adjuvant in combo (P. aeruginosa PAO1; in combination with Aztreonam): (8)
MIC of adjuvant in combo (P. aeruginosa PAO1; in combination with Ceftazidime): (8)
MIC of adjuvant in combo (P. aeruginosa PAO1; in combination with Chloramphenicol): (4)
MIC of adjuvant in combo (P. aeruginosa PAO1; in combination with Ciprofloxacin): (8)
MIC of adjuvant in combo (P. aeruginosa PAO1; in combination with Clindamycin): (8)
MIC of adjuvant in combo (P. aeruginosa PAO1; in combination with Doripenem): (8)
MIC of adjuvant in combo (P. aeruginosa PAO1; in combination with Doxycycline): (8)
MIC of adjuvant in combo (P. aeruginosa PAO1; in combination with Fosfomycin): (8)
MIC of adjuvant in combo (P. aeruginosa PAO1; in combination with Gentamicin): (0.25)
MIC of adjuvant in combo (P. aeruginosa PAO1; in combination with Linezolid): (8)
MIC of adjuvant in combo (P. aeruginosa PAO1; in combination with Meropenem): (8)
MIC of adjuvant in combo (P. aeruginosa PAO1; in combination with Minocycline): (8)
MIC of adjuvant in combo (P. aeruginosa PAO1; in combination with Moxifloxacin): (8)
MIC of adjuvant in combo (P. aeruginosa PAO1; in combination with Novobiocin): (4)
MIC of adjuvant in combo (P. aeruginosa PAO1; in combination with Piperacillin): (8)
MIC of adjuvant in combo (P. aeruginosa PAO1; in combination with Pleuromutilin): (8)
MIC of adjuvant in combo (P. aeruginosa PAO1; in combination with Rifampicin): (4)
MIC of adjuvant in combo (P. aeruginosa PAO1; in combination with Streptomycin): (8)
MIC of adjuvant in combo (P. aeruginosa PAO1; in combination with Tobramycin): (0.25)
MIC of adjuvant in combo (P. aeruginosa PAO1; in combination with Trimethoprim): (8)
MIC of adjuvant in combo (P. aeruginosa PAO1; in combination with Vancomycin): (8)
